Common to all, as to test: MIC by agar plate dilution method on standard strains (Example 3)
What all share (format): cell-based
What all share (conditions): read-out: MIC

The subject of test [1] is Staphylococcus epidermidis ATCC12228. The procedure: (§1) Minimum growth-inhibiting concentrations of trifluoromethionine and other antibacterial drugs on standard strains were determined by an agar plate dilution method according to the standard method of Japanese Society of Chemotherapy.
(§2) Drug solutions at a concentration 10 times as high as the maximum applicable concentration were prepared as original solutions of test drugs given in Table 2 (as to solvents used for this purpose, reference should be made also to Table 2). Serial two-fold dilution series of the original solutions were prepared at desired stages, and 1 ml each of the diluted drug solutions was added to 9 ml of media given in Table 3 to prepare drug plates. Concentration range of the individual drugs used are as follows: trifluoromethionine: 400-0.025 μg/ml (15 stages), tetracycline: 100-0.025 μg/ml (13 stages), and clarithromycin: 100-0.025 μg/ml (13 stages).
(§3) • 1) Bacterial solutions stocked at −80° C. were inoculated on agar media (as to media used, reference should be made to Table 3), and then incubated at 37° C. overnight. When desired, subculturing was conducted once more on the same agar media (by overnight incubation at 37° C.). • 2) Colonies growing on the agar media were sampled by a platinum loop, suspended in liquid media (reference should be made to Table 3) and statically incubated at 37° C. for 18 hours (preculturing). • 3) Preculturing was continued up to McFarland 0.5 (McFarland 0.5=about 10^8 CFU/ml), and then the culture broths were diluted with Muellar Hinton Broth to make 10^6 CFU/ml. 5 μl each of the diluted solutions were inoculated on the above-mentioned drug plates by an inoculator Microplanter.
(§4) Thus, bacterial solutions at about 10^8 CFU/ml can be easily prepared by use of McFarland 0.5. Bacterial solutions at such a turbidity are commercially available, but can be easily prepared. McFarland 0.5 can be obtained by adding 0.5 ml of an aqueous 0.048 mol/l barium chloride solution to 99.5 ml of 1% v/v (0.18 mol/l) sulfuric acid. • 4) The individual bacteria were incubated at 37° C. for 18-20 hours and then the growth was determined in the same manner as in Example 2 to obtain minimum growth-inhibiting concentrations.

Test [2] relates to Staphylococcus epidermidis ATCC29886. The procedure:
as §1, §2, §3, §4

Test [3] has as its system Bacillus subtilis ATCC6633. The procedure:
as §3, with “Drug solutions at a concentration 10 times as high as the maximum applicable concentration were prepared as original solutions of test drugs given in Table 2 (as to solvents used for this purpose, reference should be made also to Table 2). Serial two-fold dilution series of the original solutions were prepared at desired stages, and 1 ml each of the diluted drug solutions was added to 9 ml of media given in Table 3 to prepare drug plates. […] • 1)” for “• 1)”, “inoculator Microplanter. […] Thus, bacterial solutions at about 10^8 CFU/ml can be easily prepared by use of McFarland 0.5. Bacterial solutions at such a turbidity are commercially available, but can be easily prepared.” for “inoculator Microplanter.”

Test [4] relates to Enterococcus faecalis ATCC29247. The procedure:
as §3, with “Drug solutions at a concentration 10 times as high as the maximum applicable concentration were prepared as original solutions of test drugs given in Table 2 (as to solvents used for this purpose, reference should be made also to Table 2). Serial two-fold dilution series of the original solutions were prepared at desired stages, and 1 ml each of the diluted drug solutions was added to 9 ml of media given in Table 3 to prepare drug plates. […] • 1)” for “• 1)”, “inoculator Microplanter. […] Thus, bacterial solutions at about 10^8 CFU/ml can be easily prepared by use of McFarland 0.5. Bacterial solutions at such a turbidity are commercially available, but can be easily prepared.” for “inoculator Microplanter.”

For test [5], the system named is Enterococcus faecium ATCC19434. The procedure: as §3, with “Drug solutions at a concentration 10 times as high as the maximum applicable concentration were prepared as original solutions of test drugs given in Table 2 (as to solvents used for this purpose, reference should be made also to Table 2). Serial two-fold dilution series of the original solutions were prepared at desired stages, and 1 ml each of the diluted drug solutions was added to 9 ml of media given in Table 3 to prepare drug plates. […] • 1)” for “• 1)”, “inoculator Microplanter. […] Thus, bacterial solutions at about 10^8 CFU/ml can be easily prepared by use of McFarland 0.5. Bacterial solutions at such a turbidity are commercially available, but can be easily prepared.” for “inoculator Microplanter.”

Test [6] concerns Escherichia coli ATCC25922. The procedure: as §3, with “Drug solutions at a concentration 10 times as high as the maximum applicable concentration were prepared as original solutions of test drugs given in Table 2 (as to solvents used for this purpose, reference should be made also to Table 2). Serial two-fold dilution series of the original solutions were prepared at desired stages, and 1 ml each of the diluted drug solutions was added to 9 ml of media given in Table 3 to prepare drug plates. […] • 1)” for “• 1)”, “inoculator Microplanter. […] Thus, bacterial solutions at about 10^8 CFU/ml can be easily prepared by use of McFarland 0.5. Bacterial solutions at such a turbidity are commercially available, but can be easily prepared.” for “inoculator Microplanter.”

The subject of test [7] is Escherichia coli ATCC35218. The procedure:
as §3, with “Drug solutions at a concentration 10 times as high as the maximum applicable concentration were prepared as original solutions of test drugs given in Table 2 (as to solvents used for this purpose, reference should be made also to Table 2). Serial two-fold dilution series of the original solutions were prepared at desired stages, and 1 ml each of the diluted drug solutions was added to 9 ml of media given in Table 3 to prepare drug plates. […] • 1)” for “• 1)”, “inoculator Microplanter. […] Thus, bacterial solutions at about 10^8 CFU/ml can be easily prepared by use of McFarland 0.5. Bacterial solutions at such a turbidity are commercially available, but can be easily prepared.” for “inoculator Microplanter.”

For test [8], the system named is Haemophilus influenzae ATCC33391. The procedure: as §3, with “Drug solutions at a concentration 10 times as high as the maximum applicable concentration were prepared as original solutions of test drugs given in Table 2 (as to solvents used for this purpose, reference should be made also to Table 2). Serial two-fold dilution series of the original solutions were prepared at desired stages, and 1 ml each of the diluted drug solutions was added to 9 ml of media given in Table 3 to prepare drug plates. […] • 1)” for “• 1)”, “inoculator Microplanter. […] Thus, bacterial solutions at about 10^8 CFU/ml can be easily prepared by use of McFarland 0.5. Bacterial solutions at such a turbidity are commercially available, but can be easily prepared.” for “inoculator Microplanter.”

In test [9] the test system is Haemophilus influenzae ATCC33533. The procedure: as §3, with “Drug solutions at a concentration 10 times as high as the maximum applicable concentration were prepared as original solutions of test drugs given in Table 2 (as to solvents used for this purpose, reference should be made also to Table 2). Serial two-fold dilution series of the original solutions were prepared at desired stages, and 1 ml each of the diluted drug solutions was added to 9 ml of media given in Table 3 to prepare drug plates. […] • 1)” for “• 1)”, “inoculator Microplanter. […] Thus, bacterial solutions at about 10^8 CFU/ml can be easily prepared by use of McFarland 0.5. Bacterial solutions at such a turbidity are commercially available, but can be easily prepared.” for “inoculator Microplanter.”

Test [10] concerns Haemophilus influenzae ATCC49247. The procedure: as §3, with “Drug solutions at a concentration 10 times as high as the maximum applicable concentration were prepared as original solutions of test drugs given in Table 2 (as to solvents used for this purpose, reference should be made also to Table 2). Serial two-fold dilution series of the original solutions were prepared at desired stages, and 1 ml each of the diluted drug solutions was added to 9 ml of media given in Table 3 to prepare drug plates. […] • 1)” for “• 1)”, “inoculator Microplanter. […] Thus, bacterial solutions at about 10^8 CFU/ml can be easily prepared by use of McFarland 0.5. Bacterial solutions at such a turbidity are commercially available, but can be easily prepared.” for “inoculator Microplanter.”

In test [11] the test system is Haemophilus influenzae ATCC49766. The procedure:
as §3, with “Drug solutions at a concentration 10 times as high as the maximum applicable concentration were prepared as original solutions of test drugs given in Table 2 (as to solvents used for this purpose, reference should be made also to Table 2). Serial two-fold dilution series of the original solutions were prepared at desired stages, and 1 ml each of the diluted drug solutions was added to 9 ml of media given in Table 3 to prepare drug plates. […] • 1)” for “• 1)”, “inoculator Microplanter. […] Thus, bacterial solutions at about 10^8 CFU/ml can be easily prepared by use of McFarland 0.5. Bacterial solutions at such a turbidity are commercially available, but can be easily prepared.” for “inoculator Microplanter.”

In test [12] the test system is Klebsiella pneumoniae ATCC700603. The procedure:
as §3, with “Drug solutions at a concentration 10 times as high as the maximum applicable concentration were prepared as original solutions of test drugs given in Table 2 (as to solvents used for this purpose, reference should be made also to Table 2). Serial two-fold dilution series of the original solutions were prepared at desired stages, and 1 ml each of the diluted drug solutions was added to 9 ml of media given in Table 3 to prepare drug plates. […] • 1)” for “• 1)”, “inoculator Microplanter. […] Thus, bacterial solutions at about 10^8 CFU/ml can be easily prepared by use of McFarland 0.5. Bacterial solutions at such a turbidity are commercially available, but can be easily prepared.” for “inoculator Microplanter.”

In test [13] the test system is Micrococcus luteus ATCC9341. The procedure: as §3, with “Drug solutions at a concentration 10 times as high as the maximum applicable concentration were prepared as original solutions of test drugs given in Table 2 (as to solvents used for this purpose, reference should be made also to Table 2). Serial two-fold dilution series of the original solutions were prepared at desired stages, and 1 ml each of the diluted drug solutions was added to 9 ml of media given in Table 3 to prepare drug plates. […] • 1)” for “• 1)”, “inoculator Microplanter. […] Thus, bacterial solutions at about 10^8 CFU/ml can be easily prepared by use of McFarland 0.5. Bacterial solutions at such a turbidity are commercially available, but can be easily prepared.” for “inoculator Microplanter.”

Test [14] concerns Moraxella (Branhamella) catarrhalis ATCC25238. The procedure: as §3, with “Drug solutions at a concentration 10 times as high as the maximum applicable concentration were prepared as original solutions of test drugs given in Table 2 (as to solvents used for this purpose, reference should be made also to Table 2). Serial two-fold dilution series of the original solutions were prepared at desired stages, and 1 ml each of the diluted drug solutions was added to 9 ml of media given in Table 3 to prepare drug plates. […] • 1)” for “• 1)”, “inoculator Microplanter. […] Thus, bacterial solutions at about 10^8 CFU/ml can be easily prepared by use of McFarland 0.5. Bacterial solutions at such a turbidity are commercially available, but can be easily prepared.” for “inoculator Microplanter.”

≈ marks a conversion by molar mass, not a printed value. Where only a bound is given, the exact number is not on record here.

As to `CC[C@H]1OC(=O)[C@H](C)[C@@H](O[C@H]2C[C@@](C)(OC)[C@@H](O)[C@H](C)O2)[C@H](C)[C@@H](O[C@@H]2O[C@H](C)C[C@H](N(C)C)[C@H]2O)[C@](C)(OC)C[C@@H](C)C(=O)[C@H](C)[C@@H](O)[C@]1(C)O` [CAM, Clarithromycin], the MIC came to 0.2 µg/mL (≈ 0.267 µM) in test [1]; 0.39 µg/mL (≈ 0.521 µM) in test [2]; 0.1 µg/mL (≈ 0.134 µM) in test [3]; 1.56 µg/mL (≈ 2.09 µM) in test [4]; 1.56 µg/mL (≈ 2.09 µM) in test [5]; 50 µg/mL (≈ 66.8 µM) in test [6]. The MIC in test [7] is 25 µg/mL (≈ 33.4 µM); in test [8] it was 6.25 µg/mL (≈ 8.36 µM); in test [9], 3.13 µg/mL (≈ 4.18 µM); in test [10], 6.25 µg/mL (≈ 8.36 µM); in test [11], 6.25 µg/mL (≈ 8.36 µM); in [12], over 100 µg/mL. Further, the MIC is 0.05 µg/mL (≈ 0.0668 µM) in test [13] and 0.1 µg/mL (≈ 0.134 µM) in [14].

Source of the values: patent publication US20050175550A1, “Compositions for oral use” (priority 2000, published 2005).
